# Results from US20130045983A1, “HSP90 INHIBITORS FOR THERAPEUTIC TREATMENT” (Novartis AG, priority 2008, published 2013).
# Assays:
# [1] = system: LXFA 1012; test: Clonogenic assay, LXFA 1012; type: cell-based; conditions: Homo sapiens, Lung, non-small cell, Adenocarcinoma, soft agar, read-out: IC50 (colony formation)
# Protocol: (§1) The anticancer activity of (R)-2-amino-7-[2-(6-methoxy-pyridin-2-yl)-phenyl]-4-methyl-7,8-dihydro-6H-pyrido[4,3-d]pyrimidin-5-one is evaluated in 30 human tumor xenografts in vitro using a clonogenic assay. In this assay, human cells derived from cancer patients are evaluated for the capacity of (R)-2-amino-7-[2-(6-methoxy-pyridin-2-yl)-phenyl]-4-methyl-7,8-dihydro-6H-pyrido[4,3-d]pyrimidin-5-one to inhibit the formation of 3 dimensional colonies. […] The tumor xenografts which have never been cultured in cell culture plastic dishes are isolated from nude mice. Tumor cell suspensions are prepared and incubated in 24 well plates containing layers of soft agar. Under these conditions a special subpopulation of cells selectively grows to colonies. (R)-2-amino-7-[2-(6-methoxy-pyridin-2-yl)-phenyl]-4-methyl-7,8-dihydro-6H-pyrido[4,3-d]pyrimidin-5one is tested in 6 concentrations up to 1000 nM. The tumor test panel comprises 1 to 10 models of 12 different human tumor types, which were bladder cancer, colon, gastric, non small cell lung (adeno, squamous cell, and large cell), small cell lung, mammary, ovary, and prostate cancer, as well as leukemia, lymphoma, melanoma, and sarcoma. Antitumor effects are recorded as inhibition of colony formation in relation to untreated controls. […]
# [2] = system: GXF 1172; test: Clonogenic assay, GXF 1172; type: cell-based; conditions: Homo sapiens, Stomach, Signet-ring cell carcinoma, soft agar, read-out: IC50 (colony formation)
# Protocol: as §1
smiles,measurement,setting,value
"COc1cccc(-c2ccccc2[C@H]2Cc3nc(N)nc(C)c3C(=O)N2)n1 [(R)-2-amino-7-[2-(6-methoxy-pyridin-2-yl)-phenyl]-4-methyl-7,8-dihydro-6H-pyrido[4,3-d]pyrimidin-5-one]",IC50,[1],> 1 µM
same,IC50,[2],0.043 µM
